# Legend:
# [1] = target: Recombinant wild type LRRK2 protein (Homo sapiens (Human), UniProt Q5S007); test: LRRK2 kinase activity, LanthaScreen TR-FRET assay (wild type); assay type: biochemical; conditions: LRRKtide 400 nM, 25 μM ATP, 60 min; read-out: LRRK2 WT IC50
# Description: (§1) LRRK2 kinase activity was measured using a LanthaScreen™ Kinase Activity Assay from ThermoFisher Scientific. Recombinant wild type or G2019S-LRRK2 protein (Life Technologies, PR8604B or PV4881, respectively), was incubated with a fluorescein-labeled peptide substrate called LRRKtide that is based upon ezrin/radixin/moesin (ERM) (Life Technologies, PV4901) in the presence of ATP and serially diluted compound. […] Compound-dependent inhibition of the TR-FRET signal was used to generate a concentration-response curve for IC50 determination.
# (§2) After 60 min incubation at room temperature, the reaction was stopped by addition of 10 μL of 2× stop solution containing a final concentration of 2 nM anti-pERM antibody and 10 mM EDTA. […] The ratio of the 520 nm and 495 nm emission was used to analyze the data.
# [2] = target: Recombinant G2019S-LRRK2 protein (Homo sapiens (Human), UniProt Q5S007, G2019S); test: LRRK2 kinase activity, LanthaScreen TR-FRET assay (G2019S); assay type: biochemical; conditions: LRRKtide 400 nM, 25 μM ATP, 60 min
# Sequence of Recombinant G2019S-LRRK2 protein (Q5S007 whole entry G2019S): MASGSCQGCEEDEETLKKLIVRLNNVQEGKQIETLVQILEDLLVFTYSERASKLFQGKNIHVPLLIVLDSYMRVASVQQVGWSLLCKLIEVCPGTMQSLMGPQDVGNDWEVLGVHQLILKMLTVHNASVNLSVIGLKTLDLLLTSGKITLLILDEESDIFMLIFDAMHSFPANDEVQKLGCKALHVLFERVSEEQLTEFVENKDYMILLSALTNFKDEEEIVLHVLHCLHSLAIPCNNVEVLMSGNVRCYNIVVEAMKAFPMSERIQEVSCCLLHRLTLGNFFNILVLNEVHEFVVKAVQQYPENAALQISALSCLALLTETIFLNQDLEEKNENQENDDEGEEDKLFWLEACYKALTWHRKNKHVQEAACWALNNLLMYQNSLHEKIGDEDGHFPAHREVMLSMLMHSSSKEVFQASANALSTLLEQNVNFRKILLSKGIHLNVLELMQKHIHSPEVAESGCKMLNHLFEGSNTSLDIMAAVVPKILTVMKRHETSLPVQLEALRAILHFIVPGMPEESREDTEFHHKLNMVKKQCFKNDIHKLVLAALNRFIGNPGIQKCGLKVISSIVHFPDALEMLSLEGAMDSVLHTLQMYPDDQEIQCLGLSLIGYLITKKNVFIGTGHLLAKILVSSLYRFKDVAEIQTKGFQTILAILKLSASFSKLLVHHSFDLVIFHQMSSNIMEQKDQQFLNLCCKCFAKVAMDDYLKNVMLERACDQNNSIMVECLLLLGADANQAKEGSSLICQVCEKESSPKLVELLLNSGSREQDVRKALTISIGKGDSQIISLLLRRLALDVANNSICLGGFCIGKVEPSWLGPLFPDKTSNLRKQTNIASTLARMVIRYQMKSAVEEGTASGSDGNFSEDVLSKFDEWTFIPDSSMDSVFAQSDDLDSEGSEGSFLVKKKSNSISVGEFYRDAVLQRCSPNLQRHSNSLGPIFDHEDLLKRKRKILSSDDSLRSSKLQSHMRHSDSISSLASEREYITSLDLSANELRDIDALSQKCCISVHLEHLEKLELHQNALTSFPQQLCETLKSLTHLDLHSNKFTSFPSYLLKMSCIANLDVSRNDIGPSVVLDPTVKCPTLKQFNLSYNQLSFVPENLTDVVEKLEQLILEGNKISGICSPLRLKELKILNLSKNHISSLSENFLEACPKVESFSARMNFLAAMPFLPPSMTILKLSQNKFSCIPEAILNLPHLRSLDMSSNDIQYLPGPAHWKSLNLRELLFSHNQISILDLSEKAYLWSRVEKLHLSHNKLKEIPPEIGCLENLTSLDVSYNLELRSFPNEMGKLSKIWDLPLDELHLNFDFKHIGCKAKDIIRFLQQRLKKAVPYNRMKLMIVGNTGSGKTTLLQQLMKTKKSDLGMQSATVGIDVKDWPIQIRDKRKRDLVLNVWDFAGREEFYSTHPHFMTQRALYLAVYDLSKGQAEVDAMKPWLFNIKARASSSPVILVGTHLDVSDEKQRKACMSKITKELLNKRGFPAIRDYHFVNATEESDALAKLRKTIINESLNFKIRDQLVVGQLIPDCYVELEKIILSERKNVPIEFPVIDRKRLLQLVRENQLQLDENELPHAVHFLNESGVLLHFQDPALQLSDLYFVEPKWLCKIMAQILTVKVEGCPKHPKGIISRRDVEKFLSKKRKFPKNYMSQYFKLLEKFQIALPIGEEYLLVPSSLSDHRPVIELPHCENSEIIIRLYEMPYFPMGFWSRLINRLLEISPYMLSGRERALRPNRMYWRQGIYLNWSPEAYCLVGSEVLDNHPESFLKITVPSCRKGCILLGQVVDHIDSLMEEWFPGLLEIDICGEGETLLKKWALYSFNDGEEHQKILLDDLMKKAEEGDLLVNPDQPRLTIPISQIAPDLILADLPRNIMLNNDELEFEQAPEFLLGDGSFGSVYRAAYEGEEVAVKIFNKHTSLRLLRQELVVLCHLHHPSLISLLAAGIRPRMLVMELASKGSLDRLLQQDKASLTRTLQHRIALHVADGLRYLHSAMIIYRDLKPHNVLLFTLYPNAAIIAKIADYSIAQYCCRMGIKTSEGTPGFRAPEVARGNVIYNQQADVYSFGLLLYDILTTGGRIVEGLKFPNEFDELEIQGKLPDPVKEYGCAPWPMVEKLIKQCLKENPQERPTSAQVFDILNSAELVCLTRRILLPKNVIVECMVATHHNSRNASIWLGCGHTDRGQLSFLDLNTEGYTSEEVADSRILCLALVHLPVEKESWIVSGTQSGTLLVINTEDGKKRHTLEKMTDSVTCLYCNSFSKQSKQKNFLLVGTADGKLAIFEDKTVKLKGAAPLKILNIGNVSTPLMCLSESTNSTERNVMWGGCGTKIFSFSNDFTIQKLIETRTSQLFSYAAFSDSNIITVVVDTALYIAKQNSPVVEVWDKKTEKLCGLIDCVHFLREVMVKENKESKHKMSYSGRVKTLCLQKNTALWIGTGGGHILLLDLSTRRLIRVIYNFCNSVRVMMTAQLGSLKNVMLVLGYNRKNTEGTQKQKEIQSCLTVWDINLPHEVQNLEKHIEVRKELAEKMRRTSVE
# Description: as §1, §2
# Sequence of Recombinant wild type LRRK2 protein (Q5S007 whole entry): as the sequence (Q5S007 whole entry G2019S) above, with S2019G counted along it
Structure (SMILES),IC50 [1],IC50 [2]
"Cc1cc(C#N)cnc1C(=O)Nc1ccc2[nH]nc(-c3cncc(N4CCOCC4)c3)c2c1 [Example 37, 5-Cyano-3-methyl-N-(3-(5-morpholinopyridin-3-yl)-1H-indazol-5-yl)picolinamide]",0.1 to 1 µM,< 0.1 µM
"Cc1cc(C#N)cnc1C(=O)Nc1ccc2[nH]nc(-c3ccc(OC(C)C)nc3)c2c1 [Example 38, 5-Cyano-N-(3-(6-isopropoxypyridin-3-yl)-1H-indazol-5-yl)-3-methylpicolinamide]",0.1 to 1 µM,< 0.1 µM
"N#Cc1cnc(C(=O)Nc2ccc3[nH]nc(-c4ccoc4)c3c2)cc1O [Example 39, 5-Cyano-N-(3-(furan-3-yl)-1H-indazol-5-yl)-4-hydroxypicolinamide]",1 to 10 µM,1 to 10 µM
"Cc1cc(C#N)cnc1C(=O)Nc1ccc2[nH]nc(-c3ccccc3)c2c1 [Example 40, 5-Cyano-3-methyl-N-(3-phenyl-1H-indazol-5-yl)picolinamide]",0.1 to 1 µM,< 0.1 µM
"Cc1cc(C#N)cnc1C(=O)Nc1ccc2[nH]nc(-c3cccc(C#N)c3)c2c1 [Example 41, 5-Cyano-N-(3-(3-cyanophenyl)-1H-indazol-5-yl)-3-methylpicolinamide]",0.1 to 1 µM,< 0.1 µM
"Cc1cc(C#N)cnc1C(=O)Nc1ccc2[nH]nc(-c3cncc(C#N)c3)c2c1 [Example 42, 5-Cyano-N-(3-(5-cyanopyridin-3-yl)-1H-indazol-5-yl)-3-methylpicolinamide]",0.1 to 1 µM,< 0.1 µM
"Cc1nc(C#N)n(C)c1C(=O)Nc1ccc2[nH]nc(-c3ccccc3)c2c1 [Example 43, 2-Cyano-1,4-dimethyl-N-(3-phenyl-1H-indazol-5-yl)-1H-imidazole-5-carboxamide]",0.1 to 1 µM,< 0.1 µM
"Cc1cc(C#N)c(C)nc1C(=O)Nc1ccc2[nH]nc(-c3ccoc3)c2c1 [Example 44, 5-Cyano-N-(3-(furan-3-yl)-1H-indazol-5-yl)-3,6-dimethylpicolinamide]",< 0.1 µM,< 0.1 µM
"Cc1cc(C#N)cnc1C(=O)Nc1ccc2[nH]nc(-c3ccc(N4CCN(C)CC4)cc3)c2c1 [Example 45, 5-Cyano-3-methyl-N-(3-(4-(4-methylpiperazin-1-yl)phenyl)-1H-indazol-5-yl)picolinamide]",< 0.1 µM,< 0.1 µM
"COc1cc(F)cc(-c2n[nH]c3ccc(NC(=O)c4ncc(C#N)cc4C)cc23)c1 [Example 46, 5-Cyano-N-(3-(3-fluoro-5-methoxyphenyl)-1H-indazol-5-yl)-3-methylpicolinamide]",0.1 to 1 µM,< 0.1 µM
"COc1ccc(-c2n[nH]c3ccc(NC(=O)c4ncc(C#N)cc4C)cc23)cc1 [Example 47, 5-Cyano-N-(3-(4-methoxyphenyl)-1H-indazol-5-yl)-3-methylpicolinamide]",0.1 to 1 µM,< 0.1 µM
"COc1cc(-c2n[nH]c3ccc(NC(=O)c4ncc(C#N)cc4C)cc23)ccn1 [Example 48, 5-Cyano-N-(3-(2-methoxypyridin-4-yl)-1H-indazol-5-yl)-3-methylpicolinamide]",0.1 to 1 µM,< 0.1 µM
"Cc1cc(C#N)ncc1C(=O)Nc1ccc2[nH]nc(-c3ccoc3)c2c1 [Example 49, 6-Cyano-N-(3-(furan-3-yl)-1H-indazol-5-yl)-4-methylnicotinamide]",0.1 to 1 µM,< 0.1 µM
"Cc1cc(C#N)cnc1C(=O)Nc1ccc2[nH]nc(-c3cccnc3)c2c1 [Example 50, 5-Cyano-3-methyl-N-(3-(pyridin-3-yl)-1H-indazol-5-yl)picolinamide]",0.1 to 1 µM,< 0.1 µM
"Cc1cc(-c2n[nH]c3ccc(NC(=O)c4ncc(C#N)cc4C)cc23)ccc1F [Example 51, 5-Cyano-N-(3-(4-fluoro-3-methylphenyl)-1H-indazol-5-yl)-3-methylpicolinamide]",0.1 to 1 µM,< 0.1 µM
"COc1ccc(-c2n[nH]c3ccc(NC(=O)c4ncc(C#N)cc4C)cc23)cn1 [Example 52, 5-Cyano-N-(3-(6-methoxypyridin-3-yl)-1H-indazol-5-yl)-3-methylpicolinamide]",0.1 to 1 µM,< 0.1 µM
"COc1cccc(-c2n[nH]c3ccc(NC(=O)c4ncc(C#N)cc4C)cc23)c1 [Example 53, 5-Cyano-N-(3-(3-methoxyphenyl)-1H-indazol-5-yl)-3-methylpicolinamide]",0.1 to 1 µM,< 0.1 µM
"Cc1cc(C#N)cnc1C(=O)Nc1ccc2[nH]nc(-c3cccc(OC(F)(F)F)c3)c2c1 [Example 54, 5-Cyano-3-methyl-N-(3-(3-(trifluoromethoxy)phenyl)-1H-indazol-5-yl)picolinamide]",1 to 10 µM,0.1 to 1 µM
"Cc1ccc(-c2n[nH]c3ccc(NC(=O)c4ncc(C#N)cc4C)cc23)cn1 [Example 55, 5-Cyano-3-methyl-N-(3-(6-methylpyridin-3-yl)-1H-indazol-5-yl)picolinamide]",0.1 to 1 µM,< 0.1 µM
"Cc1ccc(-c2n[nH]c3ccc(NC(=O)c4ncc(C#N)cc4C)cc23)cc1 [Example 56, 5-Cyano-3-methyl-N-(3-(p-tolyl)-1H-indazol-5-yl)picolinamide]",0.1 to 1 µM,< 0.1 µM
"Cc1cc(C#N)cnc1C(=O)Nc1ccc2[nH]nc(-c3cnn(C)c3)c2c1 [Example 57, 5-Cyano-3-methyl-N-(3-(1-methyl-1H-pyrazol-4-yl)-1H-indazol-5-yl)picolinamide]",< 0.1 µM,< 0.1 µM
"Cc1cccc(-c2n[nH]c3ccc(NC(=O)c4ncc(C#N)cc4C)cc23)c1 [Example 58, 5-Cyano-3-methyl-N-(3-(m-tolyl)-1H-indazol-5-yl)picolinamide]",0.1 to 1 µM,< 0.1 µM
"Cc1cc(C#N)cnc1C(=O)Nc1ccc2[nH]nc(-c3cccc(C(F)(F)F)c3)c2c1 [Example 59, 5-Cyano-3-methyl-N-(3-(3-(trifluoromethyl)phenyl)-1H-indazol-5-yl)picolinamide]",0.1 to 1 µM,< 0.1 µM
"Cc1cc(C#N)cnc1C(=O)Nc1ccc2[nH]nc(-c3ccc(C(F)(F)F)nc3)c2c1 [Example 60, 5-Cyano-3-methyl-N-(3-(6-(trifluoromethyl)pyridin-3-yl)-1H-indazol-5-yl)picolinamide]",1 to 10 µM,0.1 to 1 µM
"Cc1cc(F)cc(-c2n[nH]c3ccc(NC(=O)c4ncc(C#N)cc4C)cc23)c1 [Example 61, 5-Cyano-N-(3-(3-fluoro-5-methylphenyl)-1H-indazol-5-yl)-3-methylpicolinamide]",0.1 to 1 µM,< 0.1 µM
"Cc1cc(C#N)cnc1C(=O)Nc1ccc2[nH]nc(-c3cccc(C4CC4)c3)c2c1 [Example 62, 5-cyano-N-(3-(3-cyclopropylphenyl)-1H-indazol-5-yl)-3-methylpicolinamide]",0.1 to 1 µM,< 0.1 µM
"Cc1ccc(-c2n[nH]c3ccc(NC(=O)c4ncc(C#N)cc4C)cc23)cc1F [Example 63, 5-Cyano-N-(3-(3-fluoro-4-methylphenyl)-1H-indazol-5-yl)-3-methylpicolinamide]",0.1 to 1 µM,< 0.1 µM
"N#Cc1cnc(C(=O)Nc2ccc3[nH]nc(-c4ccoc4)c3c2)c(C(F)F)c1 [Example 64, 5-Cyano-3-(difluoromethyl)-N-(3-(furan-3-yl)-1H-indazol-5-yl)picolinamide]",0.1 to 1 µM,< 0.1 µM

# — US11427558B1, “Indazoles and azaindazoles as LRRK2 inhibitors” (ESCAPE Bio, Inc., priority 2019, dated 2022)
